We go through 3 compounds from US20210162009A1, “CHEMOKINE VARIANTS AS IMMUNE STIMULANTS” (THE MEDICAL COLLEGE OF WISCONSIN, INC., priority 2017, published 2021).

Data set [1] is described as follows: Translational diffusion measurements (dimerisation state). Type of data set: physicochemical. From the text: The lines connecting the cysteines show where the intra-and intermolecular disulfide bonds are. A) CXCL12-α2 locked dimer amino acid sequence with the conserved intramolecular disulfide bonds (black lines) and the engineered intermolecular disulfide bonds (red lines) illustrated. B) SDS-PAGE of CXCL12-αand CXCL12-α2 treated with and without dithiothreitol (DTT). […] D) N-terminal peptides corresponding to the first thirty-eight amino acids of CXCR4 are illustrated. The sequence for p38 is identical to that of CXCR4 except for an additional N-terminal Gly-Ser dipeptide (cloning artifact) and the C28A substitution (green) introduced to prevent oxidative peptide dimer formation. The sulfated peptides are identical to p38 except for the inclusion of sulfotyrosine at position 21 for p38-sY1 and at positions 7, 12 and 21 for p38-sY3.

Data set [2] has as its system melanoma metastasis. The note with it: cited from earlier work; for blocking of tumor metastasis: side-by-side equimolar comparison, 5 μM.
The nature of data set [3]: Toxicity: serum AST, ALT, BUN. The note with it: 5 μM twice weekly for 3 weeks, mice. In kind it is in vivo. As for the experimental part:
Serum levels of aspartate aminotransferase (AST) and alanine aminotransferase (ALT) were measured using serologic assays to measure hepatic toxicity. Serum levels of blood urea nitrogen (BUN) were monitored to detect kidney damage.
Toxicity—Blood, bone marrow, and tissue levels of CXCL12 were measured using a commercially available sandwich ELISA assay (20-22). The ELISA will detect both endogenous and exogenous CXCL12. Toxicity is monitored using histopathologic assessment of heart, and kidney, and serum assays of hepatic (e.g. AST, ALT, AP) and kidney (e.g. BUN, creatinine) biomarkers, using standard veterinary assays. […] Published data (Roy et al., 2014) indicate twice weekly injection of 5 μM chemokine protein is well tolerated, with no change in body weight or appearance after 120 days in tumor xenografted mice.

Data set [4] has as its system lymphocytes. Briefly: Mobilization of lymphocytes into peripheral blood and out of bone marrow. Type of data set: in vivo, mice. As to the method:
(§1) FIGS. 6A-6C show mobilization of lymphocytes into the peripheral blood (A) and out of the bone marrow (B) 1 hour after subcutaneous injection of 5 μM (0.8 mg/kg) CXCL12 locked dimer 104 or 4000 μM (20 mg/kg) plerixafor/AMD3100 102. Control mice received an injection of the chemokine vehicle (Veh), sterile PBS 100. Values are mean±SEM, n=3-4 mice per group. Asterisks (****)=[…].
The chemokine CXCL12 is produced by bone marrow stromal cells (17). A single dose infusion of plerixafor/AMD3100 competitively antagonizes CXCR4 to disrupt stromal CXCL12 interactions with bone marrow cells, mobilizing HSC to enter into the peripheral blood (6). […] Importantly, the 5 μM the CXCL12 locked dimer dose used is the same concentration we have used to block tumor metastasis in vivo and where plerixafor/AMD3100 is ineffective (FIGS. 5A-5B).
After blood collection, treated and control mice were sacrificed and the bone marrow of each femur flushed with PBS. Peripheral blood and marrow samples were centrifuged (1800×g for 15 min at room temperature), the plasma removed, and the leukocytes in the buffy coat collected, an aliquot used to enumerate the total cell population using hemocytometry, and the remaining cells transferred to flow cytometry tubes. Peripheral and bone marrow immunocytes were incubated with fluorescence-tagged antibodies to detect the HSC markers CD34, CD11, SCA1, CD90, CD38, Lin and CXCR4, or the T cell and B cell markers CD3 and CD19, respectively.
Control mice received an injection of the chemokine vehicle (Veh), sterile PBS 100. Values are mean ±SEM, n=3-4 mice per group. Asterisks (****)=P≤0.001.

Data set [5] has as its system CD34+CXCR4+ stem cells. The data set is described as follows: Mobilization of CD34+CXCR4+ hematopoietic stem cells. Type of data set: in vivo, mice. As to the method: as §1
FIGS. 8A-8C show mobilization of hematopoietic stem cells by the CXCL12 locked dimer. Mice were bled (baseline) prior to subcutaneous injection of LD at a final concentration of 5 μM. Mice were re-bled 15-minutes (FIG. 8A), 2-hours (FIG. 8B) or 4-hours (FIG. 8C) later. Two separate cohorts of mice (shown by circles and squares) were treated (n=3 per group) and show consistent increases in the number of CD34+ stem cells in the circulation.
After blood collection, treated and control mice were sacrificed and the bone marrow of each femur flushed with PBS. […] Peripheral and bone marrow immunocytes were incubated with fluorescence-tagged antibodies to detect the HSC markers CD34, CD11, SCA1, CD90, CD38, Lin and CXCR4, or the T cell and B cell markers CD3 and CD19, respectively.
FIGS. 8A-8C also show mobilization of hematopoietic stem cells by the CXCL12 locked dimer. […] Levels of CD34+CXCR4+ stem cells within circulating blood were detected and quantified using multiparametric flow cytometry.

For data set [6] the following is noted: relative to natural CXCL12; cited from earlier work.
The nature of data set [7]: Heparin binding. From the text: Further, in addition to binding CXCR4, CXCL12 also binds to heparin found in the extracellular matrix on cell surfaces. […] Amino acid substitutions in CXCL12, including K24S, K27S, or K24S/K27S can prevent heparin binding and increase the half-life of CXCL12 in vivo; therefore, similar mutations in CXCL12-α2 would likely prevent heparin binding and increase the in vivo half-life of the dimer.

For data set [8], the target named is T1, CXCR4 (Homo sapiens, UniProt P61073). The note with it: 10 nM CXCL12 variants, with or without pertussis toxin; cited from earlier work.
The test system of data set [9] is 5T33 multiple myeloma cells. The data set is described as follows: Mobilization of GFP-tagged 5T33 multiple myeloma cells into the blood. In kind it is in vivo, mice. The conditions noted are these: 50 μM subcutaneous, 1 hour, GFP+ cells by flow cytometry. As for the experimental part:
Representative flow cytometry plots are on the left measuring side scatter counts (SSC) and GFP+-5T33 multiple myeloma cells in the circulation before and after treatment shown in the right panels. n=5 mice per treatment group.
This mobilization is compared to the mobilization following administration of AMD3100. Mice bearing GFP-tagged 5T33 multiple myeloma cells were bled immediately prior to subcutaneous injection of either the CXCL12 locked dimer (50 μM) or AMD3100 (4 mM). Individual mice were re-bled 1-hour later and GFP+ myeloma tumor cells in peripheral circulation quantified by flow cytometry. Representative flow cytometry plots are on the left with GFP+-5T33 multiple myeloma cells in the circulation before and after treatment shown in the right panels. n=5 mice per treatment group.
On the technique in general: A flow cytometer gives signals particle by particle.

The target in data set [10] is T1, CXCR4. The note with it: 125I-CXCL12 displacement; read-out: Kd for binding CXCR4; cited from earlier work.
The mark [11] stands for this setting: fitted, 20 mM sodium phosphate pH 7.4.

T1 sequence (P61073 whole entry): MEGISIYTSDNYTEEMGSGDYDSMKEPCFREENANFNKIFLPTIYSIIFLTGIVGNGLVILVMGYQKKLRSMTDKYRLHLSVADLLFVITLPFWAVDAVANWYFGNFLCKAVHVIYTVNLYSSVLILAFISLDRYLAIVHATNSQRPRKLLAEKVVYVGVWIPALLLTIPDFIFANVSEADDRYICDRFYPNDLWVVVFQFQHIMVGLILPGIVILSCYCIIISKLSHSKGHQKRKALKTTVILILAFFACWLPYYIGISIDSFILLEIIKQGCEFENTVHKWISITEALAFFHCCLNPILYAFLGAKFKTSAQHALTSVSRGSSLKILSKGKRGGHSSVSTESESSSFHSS

Regarding “CXCL12 locked dimer: covalently locked dimer comprising two CXCL12 L36C/A65C sequences (SEQ ID NO: 1), linked by intermolecular disulfide bonds”, the “Diffusion coefficient Ds” value in [1] (10, 50 and 150 μM protein) is on record as 1.08-1.09 ×10^−6 cm^2s^−1. Also, in data set [2] (dose response), the “inhibition of melanoma metastasis” value is given as “dose dependently inhibits melanoma metastasis”. Further, the “melanoma metastasis, comparison with plerixafor/AMD3100” value in data set [2] (equimolar concentrations) is “more effective than plerixafor/AMD3100”. Further, the “blocking of tumor metastasis” value in [2] is reported as “blocked tumor metastasis”. The “hepatic or kidney toxicity (AST, ALT, BUN)” value in data set [3] is “little hepatic or kidney toxicity”. For the same compound, in data set [4] (5 μM, subcutaneous, 1 hour), the “bone marrow resident lymphocytes” value is “concomitant decrease in bone marrow resident lymphocytes” and the “mobilization of hematopoietic cells into peripheral circulation” value is “potently stimulated mobilization of hematopoietic cells into peripheral circulation”. Also, in data set [4] (1 hour after s.c. 5 μM (0.8 mg/kg) locked dimer or 4000 μM (20 mg/kg) plerixafor/AMD3100), the “ability to mobilize lymphocytes, locked dimer vs AMD3100” value was “no statistical difference”. The “potency relative to plerixafor for mobilizing lymphocytes, mg/kg basis” value in data set [4] (vs plerixafor) was 3 X. The “potency relative to plerixafor for mobilizing lymphocytes, molar basis” value in [4] (vs plerixafor, also monocytes and neutrophils) is listed as 1000 ×. Further, the “number of CD34+ stem cells in circulation” value in data set [5] (5 μM s.c., 15 minutes, 2 hours or 4 hours, two cohorts) was “consistent increases in the number of CD34+ stem cells in circulation”. For the same compound, in [5] (FIG. 6C), the “mobilization of CXCR4+CD34+ hematopoietic stem cells (FIG. 6C)” value is given as “mobilization of CXCR4+CD34+ hematopoietic stem cells”. Further, the “stability against enzymatic digestion in serum” value in data set [6] is “enhanced stability against enzymatic digestion in serum”. Further, in data set [7], the heparin binding result is “also binds heparin”. Further, the “G protein dependent intracellular calcium flux” value in [8] was “activates the expected and prototypical G protein dependent intracellular calcium flux”. The “mobilization of multiple myeloma cells into the blood” value in data set [9] is “mobilizes multiple myeloma cells into the blood”.
For the compound `c1cc(CN2CCCNCCNCCCNCC2)ccc1CN1CCCNCCNCCCNCC1` [plerixafor/AMD3100, plerixafor, reference compound], the “blocking of tumor metastasis” value in data set [2] is recorded as “ineffective”.
As for “wild-type CXCL12: wild type CXCL12 chemokine (SEQ ID NO:3), natural ligand for CXCR4”, in data set [1] (setting [11]), the “dimer Ds value” is recorded as ~1.0 ×10^−6 cm^2s^−1 and the “pure monomer Ds value” is ~1.6 ×10^−6 cm^2s^−1. In addition, the “hepatic or kidney toxicity (AST, ALT, BUN)” value in [3] is “little hepatic or kidney toxicity”. For the same compound, the Kd in data set [10] is 0.025 µM. For the same compound, in [6], the “stability against enzymatic digestion in serum” value is given as “rapidly inactivated in serum”.

One may read the Kd as a measure of binding affinity in units of concentration.
